Tested on: yeast MATa/sst1Δ strain EY957
Assay: Yeast cell arrest (halo) assay
Format: cell-based
Description: The mature wild-type α-Factor peptide is a 13 amino acid pheromone secreted by type […] yeast cells, which upon binding to the α-Factor receptor transmits a signal to an internally located G-protein. Once activated, this G protein triggers a series of intracellular events which lead to cellular differentiation (Elion et al., Cell, 60:649-664 (1990)). In the presence of external α-Factor, yeast cells in the early G1 phase of growth will undergo cell cycle arrest. The bioactivity of each recombinant α-Factor could easily be determined in halo assays as a region of low cell density surrounding a central disk spotted with α-Factor (FIG. 5).
Lawns of yeast MATa/sst1Δ strain EY957 were grown on YPD plates and were tested for α-Factor sensitivity as previously described (Elion et al., Cell, 60:649-664 (1990)). α-Factor peptides were dissolved in DMSO and spotted on sterile 6.5 mm paper disks. Peptide amounts were as follows: Wild-type α-Factor (αFWT)-595 pmoles; αI13-homoserine-lactone (αI13-HSl)-6,850 pmoles; αI13-homoserine (αI13-HS)-1,130 pmoles; αI13-homoserine-amide (αI13-HSA)-2,820 pmoles. The zones of inhibition (z.o.i.) for each peptide is the diameter of the low cell density region. […]
^c The zone of inhibition in mm (z.o.i.) was measured for each series […]

For “WHWLQLKPGQPMY [αFWT, Wild-type α-factor from Sigma, 13 amino acid yeast pheromone, reference compound]”, the “CA50 (cell arrest50)” value (amount of peptide per disk required to cause 50% of cell arrest) was 74 ± 5 pmol and the “z.o.i.int (y-intercept of upper asymptote of zone of inhibition curve)” value (relative maximal effect, z.o.i. vs pmoles spotted per 6.5 mm disk) was 29 mm.

Source: US5648244A, “Production, purification, cleavage and use of fusion peptides” (President and Fellows of Harvard College, priority 1993, dated 1997)
